# Where two headings read alike, the source gives them in different places.
# Experiments:
# [1] = molecular target: T1, KRAS (WT) (Homo sapiens, UniProt P01116); assay: In-vitro RAS-RAF binding assay (RRB), HTRF/FRET; assay type: biochemical
# T1 construct: Biotinylated KRAS protein amino acids 1-169 (produced at Erasca); made in house
# Protocol: (§1) Biotinylated KRAS protein amino acids 1-169 (produced at […]) is labeled with streptavidin-terbium (lanthanide cryptate donor fluorophore) in assay buffer (50 mM HEPES, pH 7.5, 100 mM NaCl, 1 mM MgCl2, 1 mM DTT) at a final concentration of 30 nM. In a separate reaction mixture, 30 nM cRAF (RBD) (Abcam, Cambridge MA) is labeled with anti-GST d2 (acceptor fluorophore). Labeling reactions are incubated for 1 hour at room temperature. […] Following the compound incubation, SOS1 catalytic domain (produced at […]) and GTPgS are added to the reaction to initiate nucleotide exchange (60 minutes exchange reaction). Once in the GTP state KRAS will bind to cRAF. No binding will occur if KRAS remains in the GDP state. Compounds may block nucleotide exchange or may create a steric obstruction to cRAF-KRAS interaction by binding to the RAS effector site. […] A portion of this mixture is transferred to a white 384-well plate (20 uL per well in duplicate) and read on an HTRF compatible plate reader (ClarioSTAR). Fluorescent resonance energy transfer (FRET) is measured at equilibrium. FRET signal will be high if KRAS-cRAF binding occurs. FRET signal will be low if KRAS-cRAF binding is inhibited by the test compound. Table 2 represents the average of multiple runs of each compound.
# [2] = molecular target: KRAS G12D (Homo sapiens, UniProt P01116, G12D); assay: In-vitro RAS-RAF binding assay (RRB), HTRF/FRET; assay type: biochemical; set-up: Biotinylated KRAS protein amino acids 1-169 (produced at Erasca); made in house
# Sequence of KRAS G12D (P01116 1-169 isoform P01116-2 G12D): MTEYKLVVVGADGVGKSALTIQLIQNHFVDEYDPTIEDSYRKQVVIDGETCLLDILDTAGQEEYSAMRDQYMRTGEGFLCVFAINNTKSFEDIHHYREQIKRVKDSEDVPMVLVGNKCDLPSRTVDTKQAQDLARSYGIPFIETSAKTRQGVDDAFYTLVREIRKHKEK
# Protocol: as §1
# [3] = Table 2, average of multiple runs of each compound, read-out: Inhibition of RAS-RAF Binding (in-vitro) KRAS (WT) IC50
# [4] = Table 2, average of multiple runs of each compound, read-out: Inhibition of RAS-RAF Binding (in-vitro) KRAS (G12D) IC50
# T1 sequence (P01116 1-169 isoform P01116-2): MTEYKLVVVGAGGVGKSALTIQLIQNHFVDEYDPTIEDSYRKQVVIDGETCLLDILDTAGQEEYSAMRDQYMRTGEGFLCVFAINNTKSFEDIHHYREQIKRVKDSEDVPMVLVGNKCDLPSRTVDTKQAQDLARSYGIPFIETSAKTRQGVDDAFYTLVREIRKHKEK
SMILES,"IC50 [1, 3]","IC50 [2, 4]","IC50 ([1]; Inhibition of RAS-RAF Binding (in-vitro) KRAS (WT) IC50 (nM), Table 2, average of multiple runs of each compound)","IC50 ([2]; Inhibition of RAS-RAF Binding (in-vitro) KRAS (G12D) IC50 (nM), Table 2, average of multiple runs of each compound)","IC50 ([1]; Table 1, read-out: Inhibition of RAS-RAF Binding (in-vitro) KRAS (WT) IC50)","IC50 ([2]; Table 1, read-out: Inhibition of RAS-RAF Binding (in-vitro) KRAS (G12D) IC50)"
"C#Cc1c(F)ccc2cc(O)cc(-c3ncc4c(N5CC6CCC(C5)N6)nc(OCCN5CCC(C)(COc6cc([C@H](C(=O)N7C[C@H](O)C[C@H]7C(=O)N[C@@H](C)c7ccc(-c8c(F)cc(F)cc8F)cc7)C(C)C)on6)CC5)nc4c3F)c12 [Example 64, (2S,4R)-1-((2R)-2-(3-((1-(2-((4-(3,8-diazabicyclo[3.2.1]octan-3-yl)-7-(8-ethynyl-7-fluoro-3-hydroxynaphthalen-1-yl)-8-fluoropyrido[4,3-d]pyrimidin-2-yl)oxy)ethyl)-4-methylpiperidin-4-yl)methoxy)isoxazol-5-yl)-3-methylbutanoyl)-4-hydroxy-N-((S)-1-(2′,4′,6′-trifluoro-[1,1′-biphenyl]-4-yl)ethyl)pyrrolidine-2-carboxamide]",1410 nM,9.62 nM,–,–,–,–
"C#Cc1c(F)ccc2cc(O)cc(-c3ncc4c(N5CC6CCC(C5)N6)nc(OC[C@@H]5CCCN5CCCOCCC(=O)N[C@H](C(=O)N5C[C@H](O)C[C@H]5C(=O)N[C@@H](C)c5ccc(-c6cccc(F)c6F)cc5)C(C)(C)C)nc4c3F)c12 [Example 51, (2S,4R)-1-((2S)-2-(3-(3-((2S)-2-(((4-(3,8-diazabicyclo[3.2.1]octan-3-yl)-7-(8-ethynyl-7-fluoro-3-hydroxynaphthalen-1-yl)-8-fluoropyrido[4,3-d]pyrimidin-2-yl)oxy)methyl)pyrrolidin-1-yl)propoxy)propanamido)-3,3-dimethylbutanoyl)-N-((S)-1-(2′,3′-difluoro-[1,1′-biphenyl]-4-yl)ethyl)-4-hydroxypyrrolidine-2-carboxamide]",95.7 nM,9.09 nM,–,–,–,–
"C#Cc1c(F)ccc2cc(O)cc(-c3ncc4c(N5CC6CCC(C5)N6)nc(OC[C@@H]5CCCN5CCCOCCC(=O)N[C@H](C(=O)N5C[C@H](O)C[C@H]5C(=O)N[C@@H](C)c5ccc(N6CCC[C@H]6C(N)=O)cc5)C(C)(C)C)nc4c3F)c12 [Example 46, (2S,4R)-1-((2S)-2-(3-(3-((2S)-2-(((4-(3,8-diazabicyclo[3.2.1]octan-3-yl)-7-(8-ethynyl-7-fluoro-3-hydroxynaphthalen-1-yl)-8-fluoropyrido[4,3-d]pyrimidin-2-yl)oxy)methyl)pyrrolidin-1-yl)propoxy)propanamido)-3,3-dimethylbutanoyl)-N-((S)-1-(4-((S)-2-carbamoylpyrrolidin-1-yl)phenyl)ethyl)-4-hydroxypyrrolidine-2-carboxamide]",–,–,21.4 nM,5.87 nM,–,–
"C#Cc1c(F)ccc2cc(O)cc(-c3ncc4c(N5CC6CCC(C5)N6)nc(OC[C@@H]5CCCN5CCCOCCC(=O)N[C@H](C(=O)N5C[C@H](O)C[C@H]5C(=O)N[C@@H](C)c5ccc(-c6c(F)cncc6F)cc5)C(C)(C)C)nc4c3F)c12 [Example 27, (2S,4R)-1-((2S)-2-(3-(3-((2S)-2-(((4-(3,8-diazabicyclo[3.2.1]octan-3-yl)-7-(8-ethynyl-7-fluoro-3-hydroxynaphthalen-1-yl)-8-fluoropyrido[4,3-d]pyrimidin-2-yl)oxy)methyl)pyrrolidin-1-yl)propoxy)propanamido)-3,3-dimethylbutanoyl)-N—((S)-1-(4-(3,5-difluoropyridin-4-yl)phenyl)ethyl)-4-hydroxypyrrolidine-2-carboxamide]",37.9 nM,10.8 nM,–,–,–,–
"Cc1cc(N)nc(-c2c(Cl)cc3c(N4CC5CCC(C4)N5)nc(OC[C@@H]4CCCN4CCCOCCC(=O)N[C@H](C(=O)N4C[C@H](O)C[C@H]4C(=O)N[C@@H](C)c4ccc(-c5scnc5C)cc4)C(C)(C)C)nc3c2F)c1C(F)(F)F [Example 1, (2S,4R)-1-[(2S)-2-[3-[3-[(2S)-2-[[7-[6-amino-4-methyl-3-(trifluoromethyl)-2-pyridyl]-6-chloro-4-(3,8-diazabicyclo[3.2.1]octan-3-yl)-8-fluoro-quinazolin-2-yl]oxymethyl]pyrrolidin-1-yl]propoxy]propanoylamino]-3,3-dimethyl-butanoyl]-4-hydroxy-N-[(1S)-1-[4-(4-methylthiazol-5-yl)phenyl]ethyl]pyrrolidine-2-carboxamide]",799 nM,15.4 nM,–,–,799 nM,15 nM
"C#Cc1c(F)ccc2cc(O)cc(-c3ncc4c(N5CC6CCC(C5)N6)nc(OC[C@@H]5CCCN5CCCOCC(=O)N[C@H](C(=O)N5C[C@H](O)C[C@H]5C(=O)N[C@@H](C)c5ccc(-c6c(F)ccc(F)c6F)cc5)C(C)(C)C)nc4c3F)c12 [Example 53, (2S,4R)-1-((2S)-2-(2-(3-((2S)-2-(((4-(3,8-diazabicyclo[3.2.1]octan-3-yl)-7-(8-ethynyl-7-fluoro-3-hydroxynaphthalen-1-yl)-8-fluoropyrido[4,3-d]pyrimidin-2-yl)oxy)methyl)pyrrolidin-1-yl)propoxy)acetamido)-3,3-dimethylbutanoyl)-4-hydroxy-N-((S)-1-(2′,3′,6′-trifluoro-[1,1′-biphenyl]-4-yl)ethyl)pyrrolidine-2-carboxamide]",123 nM,8.82 nM,–,–,–,–
"C#Cc1c(F)ccc2cc(O)cc(-c3ncc4c(N5CC6CCC(C5)N6)nc(OC[C@@H]5CCCN5CCCOCCC(=O)N[C@H](C(=O)N5C[C@H](O)C[C@H]5C(=O)N[C@@H](CO)c5ccc(-c6c(F)cccc6F)cc5)C(C)(C)C)nc4c3F)c12 [Example 32, (2S,4R)-1-((2S)-2-(3-(3-((2S)-2-(((4-(3,8-diazabicyclo[3.2.1]octan-3-yl)-7-(8-ethynyl-7-fluoro-3-hydroxynaphthalen-1-yl)-8-fluoropyrido[4,3-d]pyrimidin-2-yl)oxy)methyl)pyrrolidin-1-yl)propoxy)propanamido)-3,3-dimethylbutanoyl)-N—((R)-1-(2′,6′-difluoro-[1,1′-biphenyl]-4-yl)-2-hydroxyethyl)-4-hydroxypyrrolidine-2-carboxamide]",30.3 nM,8.23 nM,–,–,–,–
"Cc1ccccc1-c1ccc([C@H](C)NC(=O)[C@@H]2C[C@@H](O)CN2C(=O)[C@@H](NC(=O)CCOCCCN2CCC[C@H]2COc2nc(N3CC4CCC(C3)N4)c3cc(Cl)c(-c4ccc(F)c5sc(N)c(C#N)c45)c(F)c3n2)C(C)(C)C)cc1 [Example 26, (2S,4R)-1-((2S)-2-(3-(3-((2S)-2-(((7-(2-amino-3-cyano-7-fluorobenzo[b]thiophen-4-yl)-4-(3,8-diazabicyclo[3.2.1]octan-3-yl)-6-chloro-8-fluoroquinazolin-2-yl)oxy)methyl)pyrrolidin-1-yl)propoxy)propanamido)-3,3-dimethylbutanoyl)-4-hydroxy-N—((S)-1-(2′-methyl-[1,1′-biphenyl]-4-yl)ethyl)pyrrolidine-2-carboxamide]",91.8 nM,12 nM,–,–,–,–
"Cc1ncsc1-c1ccc([C@H](C)NC(=O)[C@@H]2C[C@@H](O)CN2C(=O)[C@@H](NC(=O)CCCCN2CCC[C@H]2COc2nc(N3CC4CCC(C3)N4)c3cc(C(F)(F)F)c(-c4ccc(F)c5sc(N)c(C#N)c45)c(F)c3n2)C(C)(C)C)cc1 [Example 90, (2S,4R)-1-((2S)-2-(5-((2S)-2-(((7-(2-amino-3-cyano-7-fluorobenzo[b]thiophen-4-yl)-4-(3,8-diazabicyclo[3.2.1]octan-3-yl)-8-fluoro-6-(trifluoromethyl)quinazolin-2-yl)oxy)methyl)pyrrolidin-1-yl)pentanamido)-3,3-dimethylbutanoyl)-4-hydroxy-N-((S)-1-(4-(4-methylthiazol-5-yl)phenyl)ethyl)pyrrolidine-2-carboxamide]",43 nM,13 nM,–,–,–,–
